Source: patent US5684026A, “Aminocyclopentane derivative” (priority 1994, dated 1997)

What was measured:
[1] = biological target: T1, α-glucosidase I (Baker's yeast) (Saccharomyces cerevisiae, UniProt P53008); assay: Inhibitory activity on α-glucosidase I (Ki); format: biochemical; settings: α-glucosidase I, substrate 0.25-4.0 mM, 37° C., 1 hour; read-out: Ki
T1 construct: made in house; host or cells: Baker's yeast (native enzyme, prepared by the cited method)
T1 sequence (P53008 25-833 limits assumed): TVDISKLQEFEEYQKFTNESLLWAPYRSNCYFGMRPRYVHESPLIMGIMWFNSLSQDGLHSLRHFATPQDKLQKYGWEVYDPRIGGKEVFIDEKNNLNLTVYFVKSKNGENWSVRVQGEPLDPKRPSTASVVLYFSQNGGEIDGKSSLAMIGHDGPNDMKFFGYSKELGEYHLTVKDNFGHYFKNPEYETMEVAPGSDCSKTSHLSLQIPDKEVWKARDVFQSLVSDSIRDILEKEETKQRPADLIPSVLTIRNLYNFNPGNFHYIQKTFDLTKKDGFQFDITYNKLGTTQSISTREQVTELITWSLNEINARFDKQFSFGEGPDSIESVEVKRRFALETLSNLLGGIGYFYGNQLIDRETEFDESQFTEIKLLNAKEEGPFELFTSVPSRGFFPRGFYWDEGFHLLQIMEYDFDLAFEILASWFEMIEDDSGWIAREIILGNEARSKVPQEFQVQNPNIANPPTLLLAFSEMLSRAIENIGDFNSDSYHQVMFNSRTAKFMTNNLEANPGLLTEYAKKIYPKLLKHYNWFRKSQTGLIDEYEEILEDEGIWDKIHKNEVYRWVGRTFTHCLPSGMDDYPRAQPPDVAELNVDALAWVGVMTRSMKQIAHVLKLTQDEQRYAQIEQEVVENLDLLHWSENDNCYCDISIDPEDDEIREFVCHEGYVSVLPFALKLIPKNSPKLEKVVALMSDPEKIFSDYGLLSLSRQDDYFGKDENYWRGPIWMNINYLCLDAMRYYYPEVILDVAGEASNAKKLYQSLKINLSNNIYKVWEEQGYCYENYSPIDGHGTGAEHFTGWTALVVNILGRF
Procedure: The α-glucosidase I (Baker's yeast) and its substrate (α-D-Glcl→2α-D-Glcl→3α-D-Glc-O(CH2)6 COOCH3) employed herein were prepared in accordance with the method of I. Neverova et al., Anal. Biochem., 222, 190-196 (1994).
The following measurements were performed by the methods described in this literature.
Namely, 25 μl of a buffer solution containing α-glucosidase I was added to a microtube containing the above-mentioned sample and the substrate (α-D-Glcl→2α-D-Glcl→3α-D-Glc-O(CH2)6 COOCH3). After incubating at 37° C. for 1 hour, a 1.25M tris hydrochloride buffer solution (pH 7.6, 25 μl) was added to thereby cease .the reaction. Then the reaction mixture was transferred onto a microplate followed by the addition of 250 μl of a reaction buffer solution [developing solution; 1M tris hydrochloride buffer solution (pH 7.2) containing glucose oxidase (5 units/ml, manufactured by Sigma), horseradish peroxidase (1 purpurogallin units, manufactured by Sigma) and o-dianisidine dihydrochloride (40 μg/ml)]. Then the mixture was incubated at 37° C. for 30 minutes or until an increase in the absorbance attained a plateau. Then the absorbance (A450-650) of the o-dianisidine formed and oxidized by this enzyme reaction was measured. As a blank, the above reaction was repeated but adding neither the above-mentioned sample nor substrate and the absorbance was measured. Also, the above-mentioned reaction buffer solution was added to D-glucose of a known concentration and the resulting mixture was incubated followed by the measurement of the absorbance to thereby examine a relationship between D-glucose concentration and absorbance. Each measurement was effected in two wells at the same time.
Based on the above-mentioned relationship between D-glucose concentration and absorbance, the amount of glucose liberated from the substrate due to the enzyme reaction of α-glucosidase I in the presence of the sample was determined. From the result thus obtained, Km was determined and then Ki was determined from the sample amount and the Km value.

[2] = biological target: T2, α-Glucosidase (Baker's yeast, EC 3.2.1.20) (Saccharomyces cerevisiae, UniProt P53341); assay: α-Glucosidase enzyme inhibition assay (p-nitrophenyl α-D-glucopyranoside); format: biochemical; settings: compared with deoxynojirimycin; summary of Tables 1 and 2
T2 construct: purchased Sigma; host or cells: Baker's yeast
Procedure: By using a 96-well microplate, the absorbance (at 405 nm) of liberated p- or o-nitrophenol was measured with a microplate reader (MPR-4Ai, manufactured by Tosoh Corporation).
Incubation was carried out at 37° C. by using a natural incubator (Compact NIB-10, manufactured by Iwaki Glass Co., Ltd.).
The enzymes employed herein [α-glucosidase (Baker's yeast), β-glucosidase (Almonds), α-galactosidase (E. coli), β-galactosidase (E. coli) and β-galactosidase (Bovine Liver)] were all purchased from Sigma.
The substrates (p- or o-nitrophenylglycoside) of these enzymes were all purchased from Sigma.
1) α-Glucosidase (Baker's yeast, EC 3.2.1.20) [described in H. Halvorson and L. Ellias, Biochim. Biophys. Acta, 30, 28-40 (1958)]
Into each well were introduced an aqueous solution of a sample (1 μl), a 0.66 mM solution of p-nitrophenyl α-D-glucopyranoside in a buffer (98 μl) and a (0.4 mg/ml) enzyme solution in the buffer (1 μl) to give a total volume of 100 μl. After incubating at 37° C. for 30 minutes, the reaction was ceased by adding a 1M aqueous solution of sodium carbonate (100 μl). Then the absorbance (A405) of p-nitrophenol liberated by this enzyme reaction was measured. To give the blank absorbance (Ablank), the sample (1 μl) and the substrate (99 μl) were incubated in the same manner and an aqueous solution of sodium carbonate (100 μl) was added followed by the measurement of the absorbance. […] The sample at each concentration, the blank and the control were treated each in two wells at the same time. As the buffer, a 0.1M phosphate buffer solution (pH 6.8, prepared from KH2 PO4 and K2 HPO4) was employed.

T2 sequence (P53341 whole entry): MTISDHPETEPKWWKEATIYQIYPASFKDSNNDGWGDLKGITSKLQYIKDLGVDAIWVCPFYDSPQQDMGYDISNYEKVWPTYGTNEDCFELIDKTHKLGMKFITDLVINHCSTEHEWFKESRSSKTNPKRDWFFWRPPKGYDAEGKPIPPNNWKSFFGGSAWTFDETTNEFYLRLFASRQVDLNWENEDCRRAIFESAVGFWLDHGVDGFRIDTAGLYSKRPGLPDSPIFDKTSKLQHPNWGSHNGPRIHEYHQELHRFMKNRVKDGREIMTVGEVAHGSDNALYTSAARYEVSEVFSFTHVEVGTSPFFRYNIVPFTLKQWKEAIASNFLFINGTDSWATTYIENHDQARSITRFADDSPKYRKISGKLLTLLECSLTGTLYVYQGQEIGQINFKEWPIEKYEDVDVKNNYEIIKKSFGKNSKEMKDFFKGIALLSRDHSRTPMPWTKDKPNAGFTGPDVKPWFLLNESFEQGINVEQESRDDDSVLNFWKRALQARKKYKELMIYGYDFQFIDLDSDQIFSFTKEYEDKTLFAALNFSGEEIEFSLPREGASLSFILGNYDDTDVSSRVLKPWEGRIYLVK

OC[C@@]12OC(Nc3ccccc3)=N[C@@H]1[C@H](O)[C@@H](O)[C@@H]2O [Compound 1-2L, (1S,5R,6S,7R,8S)-1-hydroxymethyl-3-phenylamino-2-oxa-4-azabicyclo[3.3.0]oct-3-ene-6,7,8-triol]
Ki [1]: 51 µM
inhibitory activity against α-glucosidase (in words) [2]: remarkably strong inhibitory activities
